Where two headings read alike, the source gives them in different places.
Columns and labels:
A431 (ATCC: CRL-1555) = experiment: Test of cancer cell growth inhibition (SRB), A431; conditions: read-out: IC50 A431
SK-Br3 (ATCC: HTB-30) = experiment: Test of cancer cell growth inhibition (SRB), SK-Br3; conditions: read-out: IC50 SK-Br-3
[1] = EGFR overexpressed A431, 72 hours, SRB

| SMILES | IC50 (A431 (ATCC: CRL-1555); [1]) [nM] | IC50 (SK-Br3 (ATCC: HTB-30); Homo sapiens, SK-BR-3, 72 h) [nM] | IC50 (A431 (ATCC: CRL-1555); Homo sapiens, A-431, 72 h) [nM] | IC50 (SK-Br3 (ATCC: HTB-30); Erb-B2 overexpressed SK-Br3, 72 hours, SRB) [nM] |
| --- | --- | --- | --- | --- |
| C=CC(=O)N1CC(C(=O)Nc2ccc3ncnc(Nc4ccc(OCc5ccccn5)c(Cl)c4)c3c2)C1 [Example 163, 1-acryloyl-azetidine-3-carboxylic acid {4-[3-chloro-4-(pyridin-2-ylmethoxy)-phenylamino]-quinazolin-6-yl}-amide] | 1400 | 60 |  |  |
| C=CC(=O)N1CCCCC1C(=O)Nc1ccc2ncnc(Nc3ccc(OCc4ccccn4)c(Cl)c3)c2c1 (stereo not drawn) [Example 164, 1-acryloyl-piperidine-2-carboxylic acid {4-[3-chloro-4-(pyridin-2-ylmethoxy)-phenylamino]-quinazolin-6-yl}-amide] | 105 | 12 |  |  |
| C=CC(=O)N1CCC[C@H]1C(=O)Nc1cc2c(Nc3ccc(OCc4ccccn4)c(Cl)c3)ncnc2cc1F [Example 165, (2S)-1-acryloyl-pyrrolidine-2-carboxylic acid {4-[3-chloro-4-(pyridin-2-ylmethoxy)-phenylamino]-7-fluoro-quinazolin-6-yl}-amide] |  | 5 | 215 |  |
| C=CC(=O)N1CCC[C@H]1C(=O)Nc1cc2c(Nc3ccc(OCc4ccccn4)c(C)c3)ncnc2cc1OC [Example 168, (2S)-1-acryloyl-pyrrolidine-2-carboxylic acid {7-methoxy-4-[3-methyl-4-(pyridin-2-ylmethoxy)-phenylamino]-quinazolin-6-yl}-amide] |  | 6 | 68 |  |
| C=CC(=O)N1CCCC1CC(=O)Nc1cc2c(Nc3ccc(OCc4ccccn4)c(Cl)c3)ncnc2cc1OC (stereo not drawn) [Example 169, 2-(1-acryloyl-pyrrolidin-2-yl)-N-{4-[3-chloro-4-(pyridin-2-ylmethoxy)-phenylamino]-7-methoxy-quinazolin-6-yl}-acetamide] |  | 24 | 79 |  |
| C=CC(=O)N1CCC[C@H]1C(=O)Nc1cc2c(Nc3ccc(OCc4ccccn4)c(Cl)c3)ncnc2cc1OCC [Example 170, (2S)-1-acryloyl-pyrrolidine-2-carboxylic acid {4-[3-chloro-4-(pyridin-2-ylmethoxy)-phenylamino]-7-ethoxy-quinazolin-6-yl}-amide] |  | 2 | 199 |  |
| C=CC(=O)N1CCC[C@H]1C(=O)Nc1cc2c(Nc3ccc(OCc4ccccn4)c(Cl)c3)ncnc2cc1SCC [Example 171, (2S)-1-acryloyl-pyrrolidine-2-carboxylic acid {4-[3-chloro-4-(pyridin-2-ylmethoxy)-phenylamino]-7-ethylsulfanyl-quinazolin-6-yl}-amide] |  | 31 | 306 |  |
| C=CC(=O)N1CCC[C@H]1C(=O)Nc1cc2c(Nc3ccc(OCc4ccccn4)c(Cl)c3)ncnc2cc1OCC1CC1 [Example 172, (2S)-1-acryloyl-pyrrolidine-2-carboxylic acid {4-[3-chloro-4-(pyridin-2-ylmethoxy)-phenylamino]-7-cyclopropylmethoxy-quinazolin-6-yl}-amide] |  | 4520 | ≥ 10000 |  |
| C=CC(=O)N1CCC[C@H]1C(=O)Nc1cc2c(Nc3ccc(OCc4ccccn4)c(Cl)c3)ncnc2cc1OC1CCCC1 [Example 173, (2S)-1-acryloyl-pyrrolidine-2-carboxylic acid {4-[3-chloro-4-(pyridin-2-ylmethoxy)-phenylamino]-7-cyclopentyloxy-quinazolin-6-yl}-amide] |  | 29 | 552 |  |
| C=CC(=O)NCCC(=O)Nc1ccc2ncnc(Nc3ccc(OCc4ccncc4)c(Cl)c3)c2c1 [Example 174, N-(2-{4-[3-chloro-4-(pyridin-4-ylmethoxy)-phenylamino]-quinazolin-6-ylcarbamoyl}-ethyl)-acrylamide] |  | 35 | 956 |  |
| COc1cc2ncnc(Nc3ccc(OCc4ccccn4)c(Cl)c3)c2cc1NC(=O)[C@@H]1CCCN1C(=O)C=CCN(C)C [Example 175, (2S)-1-(4-dimethylamino-buten-2-oyl)-pyrrolidine-2-carboxylic acid {4-[3-chloro-4-(pyridin-2-ylmethoxy)-phenylamino]-7-methoxy-quinazolin-6-yl}-amide] | 48 |  |  | 26 |
| C=CC(=O)N1CCC[C@H]1C(=O)Nc1cc2c(Nc3ccc(OCc4ccccn4)c(Cl)c3)ncnc2cc1Cl [Example 176, (2S)-1-acryloyl-pyrrolidine-2-carboxylic acid {7-chloro-4-[3-chloro-4-(pyridin-2-ylmethoxy)-phenylamino]-quinazolin-6-yl}-amide] |  | 34 | 517 |  |
| C=CC(=O)N1CCC[C@H]1C(=O)Nc1cc2c(Nc3ccc(OCc4ccccn4)c(C)c3)ncnc2cc1F [Example 177, (2S)-1-acryloyl-pyrrolidine-2-carboxylic acid {7-fluoro-4-[3-methyl-4-(pyridin-2-ylmethoxy)-phenylamino]-quinazolin-6-yl}-amide] |  | 9 | 78 |  |
| C=CC(=O)N1CC=C[C@H]1C(=O)Nc1cc2c(Nc3ccc(OCc4ccccn4)c(Cl)c3)ncnc2cc1OC [Example 179, (2S)-1-acryloyl-2,5-dihydro-1H-pyrrol-2-carboxylic acid {4-[3-chloro-4-(pyridin-2-ylmethoxy)-phenylamino]-7-methoxy-quinazolin-6-yl}-amide] |  | 17 | 121 |  |
| C=CC(=O)N1CSC[C@H]1C(=O)Nc1cc2c(Nc3ccc(OCc4ccccn4)c(Cl)c3)ncnc2cc1OC [Example 180, (4R)-3-acryloyl-thiazolidin-4-carboxylic acid {4-[3-chloro-4-(pyridin-2-ylmethoxy)-phenylamino]-7-methoxy-quinazolin-6-yl}-amide] |  | 63 | 438 |  |
| C=CC(=O)N1CCC1C(=O)Nc1ccc2ncnc(Nc3ccc(OCc4ccccn4)c(Cl)c3)c2c1 (stereo not drawn) [Example 181, 1-acryloyl-azetidine-2-carboxylic acid {4-[3-chloro-4-(pyridin-2-ylmethoxy)-phenylamino]-quinazolin-6-yl}-amide] | 218 | 13 |  |  |
| C=CC(=O)N1CCC1C(=O)Nc1cc2c(Nc3ccc(OCc4ccccn4)c(Cl)c3)ncnc2cc1OC (stereo not drawn) [Example 182, 1-acryloyl-azetidine-2-carboxylic acid {4-[3-chloro-4-(pyridin-2-ylmethoxy)-phenylamino]-7-methoxy-quinazolin-6-yl}-amide] |  | 9 | 128 |  |
| C=CC(=O)N1CCC[C@H]1C(=O)Nc1cc2c(Nc3ccc(OCc4ccccn4)c(Cl)c3)ncnc2cc1N(C)C [Example 184, (2S)-1-acryloyl-pyrrolidine-2-carboxylic acid {4-[3-chloro-4-(pyridin-2-ylmethoxy)-phenylamino]-7-dimethylamino-quinazolin-6-yl}-amide] |  | 114 | 1420 |  |
| C=CC(=O)N1CCC[C@H]1C(=O)Nc1cc2c(Nc3ccc4c(cnn4Cc4ccccn4)c3)ncnc2cc1OC [Example 185, (2S)-1-acryloyl-pyrrolidine-2-carboxylic acid [7-methoxy-4-(1-pyridin-2-ylmethyl-1H-indazol-5-ylamino)-quinazolin-6-yl]-amide] |  | 3 | 22 |  |
| C=CC(=O)N1CCC[C@H]1C(=O)Nc1cc2c(Nc3ccc(OCc4ccccn4)c(C)c3)ncnc2cc1OCC [Example 186, (2S)-1-acryloyl-pyrrolidine-2-carboxylic acid {4-[3-methyl-4-(pyridin-2-ylmethoxy)-phenylamino]-7-ethoxy-quinazolin-6-yl}-amide] |  | 8 | 26 |  |
| C=CC(=O)N1CCC[C@H]1C(=O)Nc1cc2c(Nc3ccc(OCc4ccccn4)c(Cl)c3)ncnc2cc1OCCF [Example 187, (2S)-1-acryloyl-pyrrolidine-2-carboxylic acid [4-[3-chloro-4-(pyridin-2-ylmethoxy)-phenylamino]-7-(2-fluoro-ethoxy)-quinazolin-6-yl]-amide] |  | 3 | 22 |  |
| C=CC(=O)N1CCC[C@H]1C(=O)Nc1cc2c(Nc3ccc4c(cnn4Cc4cccc(F)c4)c3)ncnc2cc1OC [Example 188, (2S)-1-acryloyl-pyrrolidine-2-carboxylic acid {4-[1-(3-fluoro-benzyl)-1H-indazol-5-ylamino]-7-methoxy-quinazolin-6-yl}-amide] |  | 6 | 24 |  |
| C=CC(=O)N(C)[C@@H](C)C(=O)Nc1cc2c(Nc3ccc(OCc4ccccn4)c(Cl)c3)ncnc2cc1OC [Example 191, (1S)—N-(1-{4-[3-chloro-4-(pyridin-2-ylmethoxy)-phenylamino]-7-methoxy-quinazolin-6-ylcarbamoyl}ethyl)-N-methyl-acrylamide] |  | 3 | 56 |  |
| C=CC(=O)NCCC(=O)Nc1cc2c(Nc3ccc(OCc4ccccn4)c(Cl)c3)ncnc2cc1F [Example 192, N-(2-{4-[3-chloro-4-(pyridin-2-ylmethoxy)-phenylamino]-7-fluoro-quinazolin-6-ylcarbamoyl}-ethyl)-acrylamide] |  | 6 | 36 |  |
| C=CC=CCn1ncc2cc(Nc3ncnc4cc(OC)c(NC(=O)[C@@H]5CCCN5C(=O)C=C)cc34)ccc21 [Example 193, (2S)-1-acryloyl-pyrrolidine-2-carboxylic acid [7-methoxy-4-(1-penta-2,4-dienyl-1H-indazol-5-ylamino)-quinazolin-6-yl]-amide] |  | 22 | 75 |  |
| C=CC(=O)N1CCC[C@H]1C(=O)Nc1cc2c(Nc3ccc(OCc4cccc(C)n4)c(Cl)c3)ncnc2cc1OC [Example 194, (2S)-1-acryloyl-pyrrolidine-2-carboxylic acid {4-[3-chloro-4-(6-methyl-pyridin-2-ylmethoxy)-phenylamino]-7-methoxy-quinazolin-6-yl}-amide] |  | 56 | 93 |  |
| C=CC(=O)N1CCC1C(=O)Nc1cc2c(Nc3ccc(OCc4ccccn4)c(Cl)c3)ncnc2cc1F (stereo not drawn) [Example 195, 1-acryloyl-azetidine-2-carboxylic acid {4-[3-chloro-4-(pyridin-2-ylmethoxy)-phenylamino]-7-fluoro-quinazolin-6-yl}-amide] |  | 44 | 119 |  |

Reference: patent US8003658B2, “Quinazoline derivatives for inhibiting cancer cell growth and method for the preparation thereof” (Hanmi Holdings Co., Ltd., priority 2004, dated 2011)
